Tested on: IL-1α
Test: IL-1α secretion by UV-B irradiated excised human skin explants (ELISA), marker for antiinflammatory activity
Type: cell-based
Settings: applied before and after UV-B irradiation, * significant p < 0.05
Procedure: The effect of phytosphingosine was assessed ex vivo on excised human skin explants.
The explant was exposed to UV-B rays as a physical, proinflammatory stress.
The antiinflammatory effect of phytosphingosine was evaluated by measurement of the amount of the cytokine IL-1α secreted in the incubation medium of the skin explants.
• Preparation of the human skin explants obtained after plastic surgery using standard techniques. • Application of the test product: • resp. 0% (Placebo), 0.2 and 0.5% phytosphingosine (PS) in Propylene glycol:Ethanol (60:40). • Dexamethasone (1 μM) was used as the reference product. • The products were applied before and after irradiation (˜2 mg/cm^2) • IL-1α secretion was measured in the incubation medium of the skin explants, using a standard ELISA technique. • Each experimental condition was performed in triplicate.

| Compound | IL-1α secreted in the incubation medium (Dexamethasone 1 μM, before UV-B 48, after UV-B 205, placebo 165) | IL-1α secreted in the incubation medium (0.2% PS in Propylene glycol:Ethanol (60:40), ~2 mg/cm^2, placebo 165) | IL-1α secreted in the incubation medium (0.5% PS in Propylene glycol:Ethanol (60:40), ~2 mg/cm^2, placebo 165) |
| --- | --- | --- | --- |
| C[C@@H]1C[C@H]2[C@@H]3CCC4=CC(=O)C=C[C@]4(C)[C@@]3(F)[C@@H](O)C[C@]2(C)[C@@]1(O)C(=O)CO [Dexamethasone, reference compound] | 116* pg per ml |  |  |
| CCCCCCCCCCCCCCC(O)C(O)C(N)CO (stereo not drawn) [PS, 2-amino-octadecane-1,3,4-triol] |  | 82* pg per ml | 92* pg per ml |
